From patent US11014911B2, “CDK2 inhibitors” (Pfizer Inc., priority 2019, dated 2021) come the findings set out here.

Assay [1] deals with GSK3β (H350L) (Homo sapiens (Human), UniProt P49841). Put plainly: biochemical. The conditions noted are these: GSK3β Ki (nM).
Protocol: The assay was initiated with the addition of ATP, following 15 minutes pre-incubation of enzyme and inhibitor at room temperature in the reaction mixture. The reaction was stopped after 30 minutes at room temperature by the addition of 50 μL of 80 mM EDTA.
The target in assay [2] is CDK2/Cyclin E1 full length (Homo sapiens (Human), UniProt P24941). Put plainly: CDK2/Cyclin E1 full length mobility shift assay. It counts as biochemical.

SMILES strings stand for the structures. Where only a bound is given, the exact number is not on record here.

Chain of GSK3β (H350L) (P49841 whole entry, stated change not applied): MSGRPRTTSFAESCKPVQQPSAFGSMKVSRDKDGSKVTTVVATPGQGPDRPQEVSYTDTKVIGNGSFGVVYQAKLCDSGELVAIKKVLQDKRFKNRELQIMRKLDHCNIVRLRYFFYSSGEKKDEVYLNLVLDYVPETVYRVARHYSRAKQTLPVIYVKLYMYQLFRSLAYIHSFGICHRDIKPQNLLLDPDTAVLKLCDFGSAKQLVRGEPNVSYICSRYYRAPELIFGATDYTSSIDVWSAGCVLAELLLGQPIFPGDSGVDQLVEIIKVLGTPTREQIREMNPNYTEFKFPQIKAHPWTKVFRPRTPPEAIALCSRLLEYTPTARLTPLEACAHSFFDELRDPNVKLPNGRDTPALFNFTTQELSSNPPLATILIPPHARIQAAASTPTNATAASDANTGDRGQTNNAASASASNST

In general, Ki refers to a dissociation constant, usually derived from enzyme kinetics or from competition with a known ligand. Consider `Cc1ncc(CC(=O)Nc2cc([C@H]3CC[C@@H](OC(=O)NC(C)C(C)(F)F)C3)[nH]n2)s1` (single isomer, unassigned) [Example 391], for which the figures for the Ki in assay [1] and in assay [2] were 38 nM and 1.38 nM, respectively.
In the case of `COc1cc(CC(=O)Nc2cc([C@H]3CC[C@@H](OC(=O)NC(C)C(C)(F)F)C3)[nH]n2)ccn1` (single isomer, unassigned) [Example 393], the Ki in assay [1] worked out at 34 nM; in assay [2], 0.97 nM.
In the same order, the values of `CCC(NC(=O)O[C@@H]1CC[C@H](c2cc(NC(=O)Cc3cc(C)no3)n[nH]2)C1)C(F)(F)F` (single isomer, unassigned) [Example 396] are 139 nM and 2.1 nM.
In the same order, the values of `CCC(NC(=O)O[C@@H]1CC[C@H](c2cc(NC(=O)Cc3cc(C)no3)n[nH]2)C1)C(F)(F)F` (single isomer, unassigned) [Example 397] are 155 nM and 1.87 nM.
On the same counts, the results for `CCC(NC(=O)O[C@@H]1CC[C@H](c2cc(NC(=O)Cc3ccc(C)nc3)n[nH]2)C1)C(F)(F)F` (single isomer, unassigned) [Example 398] are 44.1 nM and 0.65 nM.
For the compound `CCC(NC(=O)O[C@@H]1CC[C@H](c2cc(NC(=O)Cc3ccc(C)nc3)n[nH]2)C1)C(F)(F)F` (single isomer, unassigned) [Example 399], the Ki in assay [1] was 68.8 nM; in assay [2], 0.47 nM.
In the same order, the values of `Cc1c(CC(=O)Nc2cc([C@H]3CC[C@@H](OC(=O)NC(C)CC(F)(F)F)C3)[nH]n2)cnn1C` (single isomer, unassigned) [Example 401] are 32.9 nM and 0.34 nM.
On the same counts, the results for `CCC(NC(=O)O[C@@H]1CC[C@H](c2cc(NC(=O)Cc3cnc(C)s3)n[nH]2)C1)C(F)(F)F` (single isomer, unassigned) [Example 403] are 76.1 nM and 1.76 nM.
In the case of `CCC(NC(=O)O[C@@H]1CC[C@H](c2cc(NC(=O)Cc3cnc(C)s3)n[nH]2)C1)C(F)(F)F` (single isomer, unassigned) [Example 404], the results for the inhibition constant (Ki) in assay [1] and in assay [2] were 84.3 nM and 1.38 nM, respectively.
For the compound `CCC(NC(=O)O[C@@H]1CC[C@H](c2cc(NC(=O)Cc3ccnc(OC)c3)n[nH]2)C1)C(F)(F)F` (single isomer, unassigned) [Example 405], the Ki came to 97.9 nM in assay [1] and 1.37 nM in assay [2].
For `CCC(NC(=O)O[C@@H]1CC[C@H](c2cc(NC(=O)Cc3ccnc(OC)c3)n[nH]2)C1)C(F)(F)F` (single isomer, unassigned) [Example 406], the Ki in assay [1] stood at 73.3 nM; in assay [2], 1.81 nM.
On the same counts, the results for `CC(CC(F)(F)F)NC(=O)O[C@@H]1CC[C@H](c2cc(NC(=O)Cc3cnn(C(C)C)c3)n[nH]2)C1` (single isomer, unassigned) [Example 408] are 17.9 nM and 0.29 nM.
On to `CC(CC(F)(F)F)NC(=O)O[C@@H]1CC[C@H](c2cc(NC(=O)c3ccnn3CCN(C)C)[nH]n2)C1` (single isomer, unassigned) [Example 410], for which the Ki amounted to 55.5 nM in assay [1] and 0.42 nM in assay [2].
In the same order, the values of `CC(CC(F)(F)F)N(C)C(=O)O[C@@H]1CC[C@H](c2cc(NC(=O)Cc3cnn(C)c3)n[nH]2)C1` (single isomer, unassigned) [Example 413] are 14.7 nM and 0.44 nM.
Regarding `CC(CC(F)(F)F)N(C)C(=O)O[C@@H]1CC[C@H](c2cc(NC(=O)Cc3cnn(C)c3)n[nH]2)C1` (single isomer, unassigned) [Example 414], the Ki in assay [1] is 3.44 nM; in assay [2] it was 0.42 nM.
In the same order, the values of `CC1(NC(=O)O[C@@H]2CC[C@H](c3cc(NC(=O)Cc4ccno4)n[nH]3)C2)CCOC1` (single isomer, unassigned) [Example 473] are 66.2 nM and 0.36 nM.
Take `Cc1cnc(CC(=O)Nc2cc([C@@H]3CC[C@H](OC(=O)NC4(C)CCOC4)C3)[nH]n2)o1` (single isomer, unassigned) [Example 475]: the Ki turned out to be 23.9 nM in assay [1] and 0.83 nM in assay [2].
In the same order, the values of `Cc1cnc(CC(=O)Nc2cc([C@@H]3CC[C@H](OC(=O)NC4(C)CCOC4)C3)[nH]n2)o1` (single isomer, unassigned) [Example 476] are 30.9 nM and 0.45 nM.
In the same order, the values of `Cc1cnc(CC(=O)Nc2cc([C@H]3CC[C@@H](OC(=O)NC4(C)CCOC4)C3)[nH]n2)o1` (single isomer, unassigned) [Example 477] are 59.2 nM and 1.04 nM.
For the compound `Cc1ncc(CC(=O)Nc2cc([C@H]3CC[C@@H](OC(=O)NC4(C)CCOC4)C3)[nH]n2)s1` (single isomer, unassigned) [Example 481], the Ki in assay [1] turned out to be 44.6 nM; in assay [2], 0.53 nM.
On to `Cc1ncc(CC(=O)Nc2cc([C@H]3CC[C@@H](OC(=O)NC4(C)CCOC4)C3)[nH]n2)s1` (single isomer, unassigned) [Example 482], for which the inhibition constant Ki is 36.2 nM in assay [1] and 0.55 nM in assay [2].
As for `COc1ccc(CC(=O)Nc2cc([C@H]3CC[C@@H](OC(=O)NC4(C)CCOC4)C3)[nH]n2)cc1` (single isomer, unassigned) [Example 484], the Ki turned out to be 30.3 nM in assay [1] and 0.32 nM in assay [2].
On to `COCc1cc(C(=O)Nc2cc([C@H]3CC[C@@H](OC(=O)NC4(C)CCOC4)C3)[nH]n2)n(C)n1` (single isomer, unassigned) [Example 487], for which the Ki in assay [1] was more than 47.6 nM; in assay [2], 0.67 nM.
On the same counts, the results for `CC1(NC(=O)O[C@@H]2CC[C@H](c3cc(NC(=O)Cc4cnc(C(F)(F)F)cn4)n[nH]3)C2)CCOC1` (single isomer, unassigned) [Example 493] are 157 nM and 0.98 nM.
In the same order, the values of `CC1(NC(=O)O[C@@H]2CC[C@H](c3cc(NC(=O)Cc4cnc(C(F)(F)F)cn4)n[nH]3)C2)CCOC1` (single isomer, unassigned) [Example 494] are 53.3 nM and 1.02 nM.
With `O=C(Cc1cc(F)cc(F)c1)Nc1cc([C@@H]2CC[C@H](OC(=O)NCC3CCCOC3)C2)[nH]n1` (single isomer, unassigned) [Example 515], the Ki in assay [1] was determined as 11.3 nM; in assay [2], 1.25 nM.
Turning to `CCC(CO)CNC(=O)O[C@@H]1CC[C@H](c2cc(NC(=O)Cc3cc(C)no3)n[nH]2)C1` (single isomer, unassigned) [Example 524], the Ki in assay [1] came out at 10.9 nM; in assay [2], 1.69 nM.
On the same counts, the results for `CCC(CO)CNC(=O)O[C@@H]1CC[C@H](c2cc(NC(=O)Cc3cc(C)no3)n[nH]2)C1` (single isomer, unassigned) [Example 525] are 7.01 nM and 1.24 nM.
Regarding `CCC(CO)CNC(=O)O[C@@H]1CC[C@H](c2cc(NC(=O)Cc3cnc(C)s3)n[nH]2)C1` (single isomer, unassigned) [Example 528], the Ki in assay [1] was 3.6 nM; in assay [2], 1.11 nM.
On the same counts, the results for `CCC(CO)CNC(=O)O[C@@H]1CC[C@H](c2cc(NC(=O)Cc3cnc(C)s3)n[nH]2)C1` (single isomer, unassigned) [Example 529] are 3.92 nM and 0.73 nM.
On the same counts, the results for `CCC(CO)CNC(=O)O[C@@H]1CC[C@H](c2cc(NC(=O)Cc3ccc(OC)nc3)n[nH]2)C1` (single isomer, unassigned) [Example 532] are 2.97 nM and 0.89 nM.
As for `CCC(CO)CNC(=O)O[C@@H]1CC[C@H](c2cc(NC(=O)Cc3ccc(OC)nc3)n[nH]2)C1` (single isomer, unassigned) [Example 533], the Ki was 1.41 nM in assay [1] and 0.77 nM in assay [2].
On the same counts, the results for `CCC(CO)CNC(=O)O[C@@H]1CC[C@H](c2cc(NC(=O)Cc3ccnc(OC)c3)n[nH]2)C1` (single isomer, unassigned) [Example 534] are 4.63 nM and 0.85 nM.
Consider `CCC(CO)CNC(=O)O[C@@H]1CC[C@H](c2cc(NC(=O)Cc3ccnc(OC)c3)n[nH]2)C1` (single isomer, unassigned) [Example 535], for which the Ki is 3.8 nM in assay [1] and 1.21 nM in assay [2].
As to `CCC(CO)CNC(=O)O[C@@H]1CC[C@H](c2cc(NC(=O)Cc3cc(F)cc(F)c3)n[nH]2)C1` (single isomer, unassigned) [Example 537], the Ki in assay [1] is 10.7 nM; in assay [2], 1.34 nM.
In the same order, the values of `Cc1cc(CC(=O)Nc2cc([C@H]3CC[C@@H](OC(=O)N4CCC4C)C3)[nH]n2)on1` (single isomer, unassigned) [Example 589] are 18.2 nM and 0.59 nM.
On the same counts, the results for `CCC1CCN1C(=O)O[C@@H]1CC[C@H](c2cc(NC(=O)Cc3cc(C)no3)n[nH]2)C1` (single isomer, unassigned) [Example 597] are 20.9 nM and 0.54 nM.
Regarding `CCC1CCN1C(=O)O[C@@H]1CC[C@H](c2cc(NC(=O)Cc3cc(C)no3)n[nH]2)C1` (single isomer, unassigned) [Example 598], the figures for the Ki in assay [1] and in assay [2] were 16.4 nM and 0.78 nM, respectively.
With `CCC1(C)CCN1C(=O)O[C@@H]1CC[C@H](c2cc(NC(=O)Cc3cc(C)no3)n[nH]2)C1` (single isomer, unassigned) [Example 603], the Ki in assay [1] is 13.8 nM; in assay [2] it was 0.07 nM.
In the same order, the values of `CCC1(C)CCN1C(=O)O[C@@H]1CC[C@H](c2cc(NC(=O)Cc3cc(C)no3)n[nH]2)C1` (single isomer, unassigned) [Example 604] are 5 nM and 0.08 nM.
As to `COc1cnc(CC(=O)Nc2cc([C@H]3CC[C@@H](OC(=O)NC4(C)CC4)C3)[nH]n2)cn1` [Example 6, (1R,3S)-3-(3-{[(5-methoxypyrazin-2-yl)acetyl]amino}-1H-pyrazol-5-yl)cyclopentyl (1-methylcyclopropyl)carbamate], the Ki in assay [1] was 32.3 nM; in assay [2], 0.38 nM.
